Some test systems named below: ACHN renal; CAKI-1 renal; A498 renal; MDA-MB-231 breast; SNB-19 CNS; LOX IMVI melanoma; SR leukemia; SK-MEL-2 melanoma; MOLT-4 leukemia; HCC-2998 colon.
Holding throughout (experiment): NCI-60 cell line screen, 48 h

SMILES strings stand for the structures. Where “and” joins values, the source holds several entries; their conditions need not be identical. Equal entries are not always repeated.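 Each compound was tested at five concentrations against cells in 96-well plates for 48 hours. GI50 is the concentration that inhibits growth by half. TGI denotes the concentration required for complete inhibition of growth.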

For `CC(C)COC(=O)c1ccc2[nH]c(O)c(C=Nc3ccc(S(N)(=O)=O)cc3)c2c1`, the GI50 in the assay with ACHN renal is 0.885 µM; with CAKI-1 renal it was 2.86 µM; with A498 renal, 2.28 µM; in the assay on MDA-MB-231 breast, 0.915 µM; with SNB-19 CNS it was 1.93 µM; in the assay on LOX IMVI melanoma it was 0.666 µM. For the same compound, the GI50 in the assay on SR leukemia was 0.36 µM; in the assay on SK-MEL-2 melanoma, 1.73 µM; with MOLT-4 leukemia, 1.68 µM; in the assay with HCC-2998 colon, 3.27 µM. The TGI came to 5.8 µM with ACHN renal; 16.7 µM in the assay on CAKI-1 renal; 5.9 µM with A498 renal; 6.76 µM in the assay with MDA-MB-231 breast; 13.7 µM in the assay with SNB-19 CNS; 4.06 µM in the assay with LOX IMVI melanoma. Further, the TGI is 6.43 µM in the assay with SR leukemia, 4.19 µM with SK-MEL-2 melanoma, 11 µM with MOLT-4 leukemia and 9.03 µM in the assay with HCC-2998 colon.

Consider `COc1ccc(Nc2cc(C)nc(N3CCN(c4ccnc5cc(Cl)ccc45)CC3)n2)cc1`, for which the GI50 in the assay on CAKI-1 renal was 2.71 µM; with A498 renal it was 0.832 µM; in the assay on MDA-MB-231 breast, 2.31 µM; in the assay on SNB-19 CNS, 4.83 µM; in the assay with LOX IMVI melanoma, 2.39 µM; in the assay with SR leukemia it was 2.68 µM. The GI50 in the assay with MOLT-4 leukemia is 2.9 µM; with HCC-2998 colon it was 3.24 µM. The TGI in the assay with CAKI-1 renal was more than 100 µM; with A498 renal it was 7.26 µM; with MDA-MB-231 breast, more than 100 µM; with SNB-19 CNS, more than 100 µM; in the assay on LOX IMVI melanoma it was 5.96 µM; with SR leukemia it was more than 100 µM. In addition, the TGI was determined as 19.7 µM in the assay with MOLT-4 leukemia and 11.6 µM in the assay on HCC-2998 colon.

For `O=C1CC(c2ccc(Cl)cc2)Oc2ccccc21` (stereo unspecified), the TGI in the assay with ACHN renal was more than 100 µM; with CAKI-1 renal it was 77.3 µM; with A498 renal it was 73 µM; in the assay with MDA-MB-231 breast, 53.9 µM; in the assay on SNB-19 CNS, 77.7 µM; with LOX IMVI melanoma, 93.6 µM. In addition, the TGI in the assay with SR leukemia amounted to 28 µM; in the assay with SK-MEL-2 melanoma, 37.8 µM; in the assay with HCC-2998 colon, 55 µM.

`C/C=C(\C)C(=O)N[C@H]1C(O)C[C@]2(C)C3CC[C@@]4(C)C(CC[C@@H]4C(C)N(C)C)C3CCC2C1O` (stereo partly specified): the GI50 is 10.3 µM in the assay on ACHN renal; 9.42 µM in the assay on CAKI-1 renal; 10.4 µM in the assay on A498 renal; 6.06 µM in the assay with MDA-MB-231 breast; 18.8 µM in the assay on SNB-19 CNS; 1.81 µM in the assay with LOX IMVI melanoma. In addition, the GI50 with SK-MEL-2 melanoma was 24.1 µM; with MOLT-4 leukemia it was 4.06 µM; in the assay on HCC-2998 colon, 4.16 µM. In addition, the TGI in the assay with ACHN renal is 43.4 µM; in the assay with CAKI-1 renal, 38.8 µM; in the assay on A498 renal, 30.1 µM; in the assay with MDA-MB-231 breast, 18 µM; in the assay with SNB-19 CNS, 43.8 µM; in the assay on LOX IMVI melanoma, 4.7 µM. Also, the results for the TGI with SK-MEL-2 melanoma, in the assay with MOLT-4 leukemia and in the assay on HCC-2998 colon were 49.1 µM, 17.2 µM and 9.21 µM, respectively.

`[Cl][Cd][Cl]`: the GI50 was 77.7 µM in the assay on ACHN renal; 17.7 µM and 10.9 µM in the assay on CAKI-1 renal; 14 µM in the assay on A498 renal; 16.5 µM in the assay with MDA-MB-231 breast; > 44.1 µM and 49.9 µM in the assay with SNB-19 CNS; 24.8 µM in the assay on LOX IMVI melanoma. Moreover, the GI50 was 52.3 µM and 6.16 µM with SR leukemia; 16.4 µM and 8.88 µM in the assay on SK-MEL-2 melanoma; 31.4 µM and 11.8 µM with MOLT-4 leukemia; 23.6 µM and 79 µM in the assay on HCC-2998 colon. For the same compound, the TGI is 162 µM in the assay with ACHN renal; 34.8 µM and 22.2 µM in the assay with CAKI-1 renal; 32.9 µM with A498 renal; 53.9 µM in the assay with MDA-MB-231 breast; > 61 µM and 146 µM in the assay with SNB-19 CNS; 75.9 µM in the assay on LOX IMVI melanoma. Moreover, the TGI in the assay on SR leukemia was 500 µM; in the assay with SK-MEL-2 melanoma, 24.8 µM and 18.9 µM; in the assay with MOLT-4 leukemia, > 83.4 µM and 82.9 µM; with HCC-2998 colon, > 63.5 µM and 158 µM.

For `NCCSCCc1ccccc1`, the TGI in the assay with ACHN renal, in the assay on CAKI-1 renal, with A498 renal, with MDA-MB-231 breast, in the assay with SNB-19 CNS and with LOX IMVI melanoma was more than 100 µM throughout. Besides, the TGI in the assay on SR leukemia, in the assay with SK-MEL-2 melanoma and in the assay with HCC-2998 colon was more than 100 µM in each case.

Turning to `c1ccc(CNc2nc(Nc3ccccc3)nc3ccccc23)cc1`, the GI50 in the assay on ACHN renal was 1.87 µM; with CAKI-1 renal, 2.04 µM; in the assay with A498 renal, 1.29 µM; in the assay on MDA-MB-231 breast it was 1.58 µM; with SNB-19 CNS, 3.16 µM; in the assay with LOX IMVI melanoma, 1.88 µM. Besides, the figures for the GI50 in the assay with SR leukemia, in the assay on MOLT-4 leukemia and in the assay on HCC-2998 colon were 2.28 µM, 2.21 µM and 1.99 µM, respectively. For the same compound, the TGI in the assay on ACHN renal came to 4.16 µM; with CAKI-1 renal, 5.18 µM; in the assay with A498 renal it was 5.7 µM; in the assay on MDA-MB-231 breast, 3.12 µM; with SNB-19 CNS it was 14.6 µM; in the assay on LOX IMVI melanoma it was 3.4 µM. The TGI turned out to be 6.07 µM with SR leukemia, 5.37 µM in the assay with MOLT-4 leukemia and 4.43 µM with HCC-2998 colon.

On to `ClCc1ccc(Cn2cnc3c(Cl)nc(Cl)nc32)cc1`, for which the GI50 in the assay with ACHN renal is 2.35 µM; in the assay with CAKI-1 renal, 9.17 µM; in the assay with A498 renal, 12.1 µM; in the assay with MDA-MB-231 breast it was 1.81 µM; with SNB-19 CNS, 2.5 µM; in the assay on LOX IMVI melanoma it was 2.06 µM. Moreover, the GI50 is 19.8 µM in the assay with SK-MEL-2 melanoma, 10.4 µM in the assay on MOLT-4 leukemia and 10.3 µM with HCC-2998 colon. The TGI is 5.28 µM in the assay with ACHN renal; 21.3 µM in the assay on CAKI-1 renal; 25.1 µM with A498 renal; 3.63 µM in the assay with MDA-MB-231 breast; 7.04 µM in the assay on SNB-19 CNS; 4.13 µM with LOX IMVI melanoma. Besides, the TGI in the assay with SK-MEL-2 melanoma is 43.5 µM; in the assay with MOLT-4 leukemia it was 27.4 µM; with HCC-2998 colon, 24 µM.

In the case of `COc1ccc2nc(NC(=O)c3cccnc3Nc3cc(OC)c(OC)c(OC)c3)sc2c1`, the GI50 in the assay on ACHN renal was 6.47 µM; in the assay on CAKI-1 renal it was 16.4 µM; with A498 renal, 2.19 µM; in the assay on MDA-MB-231 breast, 5.62 µM; in the assay with SNB-19 CNS it was 15 µM; in the assay with LOX IMVI melanoma it was 15.7 µM. Besides, the GI50 with SR leukemia was 2.31 µM; with MOLT-4 leukemia, 24.2 µM; with HCC-2998 colon it was 17 µM. The TGI was determined as 20.6 µM in the assay with ACHN renal; 42.5 µM in the assay on CAKI-1 renal; 7.42 µM in the assay with A498 renal; 21.7 µM in the assay on MDA-MB-231 breast; 31.7 µM with SNB-19 CNS; 42.2 µM with LOX IMVI melanoma. Moreover, the values for the TGI in the assay on SR leukemia, in the assay on MOLT-4 leukemia and in the assay on HCC-2998 colon were 16.1 µM, more than 100 µM and 39.4 µM, respectively.

Source of the values: PubChem BioAssay (NCI).
